Test results published in ChEMBL document CHEMBL1697692, “Developing structure-activity relationships for the prediction of hepatotoxicity” (Chem Res Toxicol, 2010).

What follows are molecules tested on Hepatotoxicity (assay: Literature-mined public compounds from Greene et al multi-species hepatotoxicity modelling dataset).
With `Clc1ccccc1CN1CCc2sccc2C1` [TICLOPIDINE] the Hepatotoxicity was “HH: Evidence of human hepatotoxicity”.
With `CC(C)(C)NC[C@H](O)COc1nsnc1N1CCOCC1.O=C(O)/C=C\C(=O)O` [TIMOLOL MALEATE] the Hepatotoxicity was “HH: Evidence of human hepatotoxicity”.
`NC[C@H]1O[C@H](O[C@H]2[C@H](O)[C@@H](O[C@H]3O[C@H](CO)[C@@H](O)[C@H](N)[C@H]3O)[C@H](N)C[C@@H]2N)[C@H](N)C[C@@H]1O` [TOBRAMYCIN] was tested, and the Hepatotoxicity was “HH: Evidence of human hepatotoxicity”.
`Cc1ccc(S(=O)(=O)NC(=O)NN2CCCCCC2)cc1` [TOLAZAMIDE] was tested, and the Hepatotoxicity was “HH: Evidence of human hepatotoxicity”.
In the case of `Cc1ccc(C(=O)c2cc(O)c(O)c([N+](=O)[O-])c2)cc1` [TOLCAPONE], the Hepatotoxicity is reported as “HH: Evidence of human hepatotoxicity”.
`Cc1ccc(C(=O)c2ccc(CC(=O)O)n2C)cc1` [TOLMETIN] was tested, and the Hepatotoxicity was “HH: Evidence of human hepatotoxicity”.
`Cl.N[C@@H]1C[C@H]1c1ccccc1` [TRANYLCYPROMINE HYDROCHLORIDE] was tested, and the Hepatotoxicity was “NE: No evidence of hepatotoxicity in any species”.
For `Cl.O=c1n(CCCN2CCN(c3cccc(Cl)c3)CC2)nc2ccccn12` [TRAZODONE HYDROCHLORIDE], the Hepatotoxicity was “HH: Evidence of human hepatotoxicity”.
`CC1=C(/C=C/C(C)=C/C=C/C(C)=C/C(=O)O)C(C)(C)CCC1` [TRETINOIN] was tested, and the Hepatotoxicity was “HH: Evidence of human hepatotoxicity”.
`ClC=C(Cl)Cl` [TRICHLOROETHYLENE] was tested, and the Hepatotoxicity was “AH: Evidence for animal hepatotoxicity but not tested in humans”.
With `CN1CCN(CCCN2c3ccccc3Sc3ccc(C(F)(F)F)cc32)CC1` [TRIFLUOPERAZINE] the Hepatotoxicity was “HH: Evidence of human hepatotoxicity”.
`CN1C(=O)OC(C)(C)C1=O` [TRIMETHADIONE] was tested, and the Hepatotoxicity was “HH: Evidence of human hepatotoxicity”.
With `COc1cc(C(=O)NCc2ccc(OCCN(C)C)cc2)cc(OC)c1OC.Cl` [TRIMETHOBENZAMIDE HYDROCHLORIDE] the Hepatotoxicity was “HH: Evidence of human hepatotoxicity”.
In the case of `COc1cc(Cc2cnc(N)nc2N)cc(OC)c1OC` [TRIMETHOPRIM], the Hepatotoxicity is reported as “HH: Evidence of human hepatotoxicity”.
`CN(C)CCN(Cc1ccccc1)c1ccccn1.Cl` [TRIPELENNAMINE HYDROCHLORIDE] was tested, and the Hepatotoxicity was “HH: Evidence of human hepatotoxicity”.
In the case of `Cc1c(C)c2c(c(C)c1O)CCC(C)(COc1ccc(CC3SC(=O)NC3=O)cc1)O2` (stereo not drawn) [TROGLITAZONE], the Hepatotoxicity is reported as “HH: Evidence of human hepatotoxicity”.
For `CO[C@H]1C[C@H](O[C@H]2[C@H](C)[C@@H](O[C@@H]3O[C@H](C)C[C@H](N(C)C)[C@H]3OC(C)=O)[C@@H](C)C[C@@]3(CO3)C(=O)[C@H](C)[C@@H](OC(C)=O)[C@@H](C)[C@@H](C)OC(=O)[C@@H]2C)O[C@@H](C)[C@@H]1OC(C)=O` [TROLEANDOMYCIN], the Hepatotoxicity was “HH: Evidence of human hepatotoxicity”.
With `NC(CO)(CO)CO` [TROMETHAMINE] the Hepatotoxicity was “NE: No evidence of hepatotoxicity in any species”.
In the case of `N[C@@H]1[C@H]2CN(c3nc4c(cc3F)c(=O)c(C(=O)O)cn4-c3ccc(F)cc3F)C[C@@H]12` [TROVAFLOXACIN], the Hepatotoxicity is reported as “HH: Evidence of human hepatotoxicity”.
In the case of `Oc1ncc(N(CCCl)CCCl)c(O)n1` [URACIL MUSTARD], the Hepatotoxicity is reported as “HH: Evidence of human hepatotoxicity”.
In the case of `CN[C@H](CC(C)C)C(=O)N[C@H]1C(=O)N[C@@H](CC(N)=O)C(=O)N[C@H]2C(=O)N[C@H]3C(=O)N[C@H](C(=O)N[C@H](C(=O)O)c4cc(O)cc(O)c4-c4cc3ccc4O)[C@H](O)c3ccc(c(Cl)c3)Oc3cc2cc(c3O[C@@H]2O[C@H](CO)[C@@H](O)[C@H](O)[C@H]2O[C@H]2C[C@](C)(N)[C@H](O)[C@H](C)O2)Oc2ccc(cc2Cl)[C@H]1O` [VANCOMYCIN], the Hepatotoxicity is reported as “HH: Evidence of human hepatotoxicity”.
For `Nc1ncnc2c1ncn2[C@@H]1O[C@H](CO)[C@@H](O)[C@@H]1O` [VIDARABINE], the Hepatotoxicity was “NE: No evidence of hepatotoxicity in any species”.
In the case of `CC[C@]1(O)C[C@@H]2CN(CCc3c([nH]c4ccccc34)[C@@](C(=O)OC)(c3cc4c(cc3OC)N(C)[C@H]3[C@@](O)(C(=O)OC)[C@H](OC(C)=O)[C@]5(CC)C=CCN6CC[C@]43[C@@H]65)C2)C1.O=S(=O)(O)O` [VINBLASTINE SULFATE], the Hepatotoxicity is reported as “NE: No evidence of hepatotoxicity in any species”.
`CC[C@]1(O)C[C@H]2CN(CCc3c([nH]c4ccccc34)[C@@](C(=O)OC)(c3cc4c(cc3OC)N(C=O)[C@H]3[C@@](O)(C(=O)OC)[C@H](OC(C)=O)[C@]5(CC)C=CCN6CC[C@]43[C@@H]65)C2)C1.O=S(=O)(O)O` [VINCRISTINE SULFATE] was tested, and the Hepatotoxicity was “HH: Evidence of human hepatotoxicity”.
For `CCCCCCCCCCCCCCCC(=O)OC/C=C(C)/C=C/C=C(C)/C=C/C1=C(C)CCCC1(C)C` [VITAMIN A PALMITATE], the Hepatotoxicity was “AH: Evidence for animal hepatotoxicity but not tested in humans”.
In the case of `CC(=O)CC(c1ccccc1)c1c(O)c2ccccc2oc1=O` (stereo not drawn) [WARFARIN], the Hepatotoxicity is reported as “WE: Weak evidence (<10 case reports) of human hepatotoxicity”.
`COc1cc(C(=O)NS(=O)(=O)c2ccccc2C)ccc1Cc1cn(C)c2ccc(NC(=O)OC3CCCC3)cc12` [ZAFIRLUKAST] was tested, and the Hepatotoxicity was “HH: Evidence of human hepatotoxicity”.
`Nc1ccn([C@H]2CC[C@@H](CO)O2)c(=O)n1` [ZALCITABINE] was tested, and the Hepatotoxicity was “NE: No evidence of hepatotoxicity in any species”.
With `Cc1cn([C@H]2C[C@H](N=[N+]=[N-])[C@@H](CO)O2)c(=O)[nH]c1=O` [ZIDOVUDINE] the Hepatotoxicity was “HH: Evidence of human hepatotoxicity”.
For `CC(c1cc2ccccc2s1)N(O)C(N)=O` (stereo not drawn) [ZILEUTON], the Hepatotoxicity was “HH: Evidence of human hepatotoxicity”.
In the case of `Cc1ccc(-c2nc3ccc(C)cn3c2CC(=O)N(C)C)cc1` [ZOLPIDEM], the Hepatotoxicity is reported as “WE: Weak evidence (<10 case reports) of human hepatotoxicity”.
In the case of `Cc1cc(CC(=O)O)n(C)c1C(=O)c1ccc(Cl)cc1` [ZOMEPIRAC], the Hepatotoxicity is reported as “NE: No evidence of hepatotoxicity in any species”.
With AURANOFIN the Hepatotoxicity was “HH: Evidence of human hepatotoxicity”.
For AUROTHIOGLUCOSE, the Hepatotoxicity was “HH: Evidence of human hepatotoxicity”.
In the case of BISMUTH SUBSALICYLATE, the Hepatotoxicity is reported as “NE: No evidence of hepatotoxicity in any species”.
CADMIUM DICHLORIDE was tested, and the Hepatotoxicity was “AH: Evidence for animal hepatotoxicity but not tested in humans”.
In the case of CARBOPLATIN, the Hepatotoxicity is reported as “HH: Evidence of human hepatotoxicity”.
CISPLATIN was tested, and the Hepatotoxicity was “HH: Evidence of human hepatotoxicity”.
With CYANOCOBALAMIN the Hepatotoxicity was “NE: No evidence of hepatotoxicity in any species”.
With DICHROMATE the Hepatotoxicity was “AH: Evidence for animal hepatotoxicity but not tested in humans”.
For FERROUS SULFATE, the Hepatotoxicity was “NE: No evidence of hepatotoxicity in any species”.
In the case of GADOLINIUM HYDROCHLORIDE, the Hepatotoxicity is reported as “AH: Evidence for animal hepatotoxicity but not tested in humans”.
With GALLIUM NITRATE HYDRATE the Hepatotoxicity was “NE: No evidence of hepatotoxicity in any species”.
With GENTAMICIN the Hepatotoxicity was “NE: No evidence of hepatotoxicity in any species”.
With LACTOSE, ANHYDROUS the Hepatotoxicity was “NE: No evidence of hepatotoxicity in any species”.
With MERCURIC CHLORIDE the Hepatotoxicity was “AH: Evidence for animal hepatotoxicity but not tested in humans”.
POTASSIUM DICHROMATE was tested, and the Hepatotoxicity was “AH: Evidence for animal hepatotoxicity but not tested in humans”.
In the case of TRANSPLATIN, the Hepatotoxicity is reported as “AH: Evidence for animal hepatotoxicity but not tested in humans”.
